What was measured:
CD73 [1] = target: T1, CD73 (Homo sapiens (Human), UniProt P21589); test: MDA-MB-231 Cell Based CD73 Activity Assay (DMEM); conditions: MDA-MB-231-GFP cells, DMEM medium with 10% human plasma, 200 uM AMP
CD73 [2] = target: T1, CD73; type: biochemical; conditions: 1 mM NaH2PO4 in enzyme buffer, CD73 0.3 nM, AMP 15 uM

T1 sequence (P21589 27-574): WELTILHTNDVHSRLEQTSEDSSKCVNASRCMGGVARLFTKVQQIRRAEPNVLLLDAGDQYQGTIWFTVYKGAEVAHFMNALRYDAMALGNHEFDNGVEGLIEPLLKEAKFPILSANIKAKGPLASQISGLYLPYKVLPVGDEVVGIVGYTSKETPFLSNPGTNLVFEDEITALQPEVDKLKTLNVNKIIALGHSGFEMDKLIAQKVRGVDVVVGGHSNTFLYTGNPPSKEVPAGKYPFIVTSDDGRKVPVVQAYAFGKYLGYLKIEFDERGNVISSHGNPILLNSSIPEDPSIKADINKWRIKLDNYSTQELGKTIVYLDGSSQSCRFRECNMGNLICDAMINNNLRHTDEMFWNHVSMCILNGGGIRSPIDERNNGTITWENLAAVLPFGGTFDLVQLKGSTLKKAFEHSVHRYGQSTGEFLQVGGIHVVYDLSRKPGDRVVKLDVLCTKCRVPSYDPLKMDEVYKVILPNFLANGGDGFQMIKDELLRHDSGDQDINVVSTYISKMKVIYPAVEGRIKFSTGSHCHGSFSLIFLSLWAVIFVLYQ

SMILES | EC50 (CD73 [1]) | IC50 (CD73 [2])
O=c1[nH]cc(-c2cc(N3CC(c4ccc(F)cc4)C3)c3nccn3n2)c(=O)[nH]1 [Example 258, 5-(8-(3-(4-fluorophenyl)azetidin-1-yl)imidazo[1,2-b]pyridazin-6-yl)pyrimidine-2,4(1H,3H)-dione] | 106 nM | 52.4 nM
O=c1[nH]cc(-c2cc(N3CC(F)(c4ccccc4)C3)c3nccn3n2)c(=O)[nH]1 [Example 259, 5-(8-(3-fluoro-3-phenylazetidin-1-yl)imidazo[1,2-b]pyridazin-6-yl)pyrimidine-2,4(1H,3H)-dione] | 80.7 nM | 14.7 nM
O=c1[nH]cc(-c2cc(N3CCC4(CC4)C(F)(F)C3)c3nccn3n2)c(=O)[nH]1 [Example 260, 5-(8-(4,4-difluoro-6-azaspiro[2.5]octan-6-yl)imidazo[1,2-b]pyridazin-6-yl)pyrimidine-2,4(1H,3H)-dione] | 963 nM | > 250 nM
COC(=O)c1ccc(C2CN(c3cc(-c4c[nH]c(=O)[nH]c4=O)nn4ccnc34)C2)cc1 [Example 261, Methyl 4-(1-(6-(2,4-dioxo-1,2,3,4-tetrahydropyrimidin-5-yl)imidazo[1,2-b]pyridazin-8-yl)azetidin-3-yl)benzoate] | 139 nM | 13.9 nM
O=c1[nH]cc(-c2cc(N3CCC(c4ccc(C(F)(F)F)cc4)C3)c3ncc(F)n3n2)c(=O)[nH]1 (stereo not shown) [Example 262, 5-(3-fluoro-8-(3-(4-(trifluoromethyl)phenyl)pyrrolidin-1-yl)imidazo[1,2-b]pyridazin-6-yl)pyrimidine-2,4(1H,3H)-dione] | 565 nM | 73.4 nM
COC(=O)c1cccc(C2CN(c3cc(-c4c[nH]c(=O)[nH]c4=O)nn4ccnc34)C2)c1 [Example 263, Methyl 3-(1-(6-(2,4-dioxo-1,2,3,4-tetrahydropyrimidin-5-yl)imidazo[1,2-b]pyridazin-8-yl)azetidin-3-yl)benzoate] | 31.4 nM | 10.7 nM
COC(=O)c1cccc(C2CCN(c3cc(-c4c[nH]c(=O)[nH]c4=O)nn4ccnc34)C2)c1 (stereo not shown) [Example 264, Methyl 3-(1-(6-(2,4-dioxo-1,2,3,4-tetrahydropyrimidin-5-yl)imidazo[1,2-b]pyridazin-8-yl)pyrrolidin-3-yl)benzoate] | 88 nM | 5.59 nM
COC(=O)c1ccc(C2CCN(c3cc(-c4c[nH]c(=O)[nH]c4=O)nn4ccnc34)C2)cc1 (stereo not shown) [Example 265, Methyl 4-(1-(6-(2,4-dioxo-1,2,3,4-tetrahydropyrimidin-5-yl)imidazo[1,2-b]pyridazin-8-yl)pyrrolidin-3-yl)benzoate] | 77.9 nM | 3.22 nM
O=c1[nH]cc(-c2cc(N3CC(F)(F)C4(CC4)C3)c3nncn3n2)c(=O)[nH]1 [Example 266, 5-(8-(7,7-difluoro-5-azaspiro[2.4]heptan-5-yl)-[1,2,4]triazolo[4,3-b]pyridazin-6-yl)pyrimidine-2,4(1H,3H)-dione] | 13.5 nM | 1.93 nM
O=C(c1ccc(C2CN(c3cc(-c4c[nH]c(=O)[nH]c4=O)nn4ccnc34)C2)cc1)N1CC(F)(F)C1 [Example 267, 5-(8-(3-(4-(3,3-difluoroazetidine-1-carbonyl)phenyl)azetidin-1-yl)imidazo[1,2-b]pyridazin-6-yl)pyrimidine-2,4(1H,3H)-dione] | 66.6 nM | 34.7 nM
O=C(c1cccc(C2CN(c3cc(-c4c[nH]c(=O)[nH]c4=O)nn4ccnc34)C2)c1)N1CC(F)(F)C1 [Example 268, 5-(8-(3-(3-(3,3-difluoroazetidine-1-carbonyl)phenyl)azetidin-1-yl)imidazo[1,2-b]pyridazin-6-yl)pyrimidine-2,4(1H,3H)-dione] | 135 nM | 97 nM
CNC(=O)c1cccc(C2CCN(c3cc(-c4c[nH]c(=O)[nH]c4=O)nn4ccnc34)C2)c1 (stereo not shown) [Example 269, 3-(1-(6-(2,4-dioxo-1,2,3,4-tetrahydropyrimidin-5-yl)imidazo[1,2-b]pyridazin-8-yl)pyrrolidin-3-yl)-N-methylbenzamide] | 27 nM | 3.62 nM
CNC(=O)c1ccc(C2CCN(c3cc(-c4c[nH]c(=O)[nH]c4=O)nn4ccnc34)C2)cc1 (stereo not shown) [Example 270, 4-(1-(6-(2,4-dioxo-1,2,3,4-tetrahydropyrimidin-5-yl)imidazo[1,2-b]pyridazin-8-yl)pyrrolidin-3-yl)-N-methylbenzamide] | 13.7 nM | 1.13 nM
O=c1[nH]cc(-c2cc([C@H]3C[C@@H]3c3cnc(C(F)(F)F)nc3)c3nccn3n2)c(=O)[nH]1 [Example 272, 5-(8-((1S,2S)-2-(2-(trifluoromethyl)pyrimidin-5-yl)cyclopropyl)imidazo[1,2-b]pyridazin-6-yl)pyrimidine-2,4(1H,3H)-dione] | 72.6 nM | 9.9 nM
O=c1[nH]cc(-c2cc([C@@H]3C[C@H]3c3cnc(C(F)(F)F)nc3)c3ncc(F)n3n2)c(=O)[nH]1 [Example 273, 5-(3-fluoro-8-((1R,2R)-2-(2-(trifluoromethyl)pyrimidin-5-yl)cyclopropyl)imidazo[1,2-b]pyridazin-6-yl)pyrimidine-2,4(1H,3H)-dione] | 58.1 nM | 9.39 nM
O=c1[nH]cc(-c2cc(N3CCC4(CCOC4)C3)c3nccn3n2)c(=O)[nH]1 (stereo not shown) [Example 274, 5-(8-(2-oxa-7-azaspiro[4.4]nonan-7-yl)imidazo[1,2-b]pyridazin-6-yl)pyrimidine-2,4(1H,3H)-dione] | 39.4 nM | 16.5 nM
O=c1[nH]cc(-c2cc(N3CCC4(CCOCC4)C3)c3nccn3n2)c(=O)[nH]1 [Example 275, 5-(8-(8-oxa-2-azaspiro[4.5]decan-2-yl)imidazo[1,2-b]pyridazin-6-yl)pyrimidine-2,4(1H,3H)-dione] | 36.2 nM | 8.64 nM
N#Cc1ccc([C@H]2C[C@@H]2c2cc(-c3c[nH]c(=O)[nH]c3=O)nn3ccnc23)c(F)c1 [Example 279, 4-((1S,2S)-2-(6-(2,4-dioxo-1,2,3,4-tetrahydropyrimidin-5-yl)imidazo[1,2-b]pyridazin-8-yl)cyclopropyl)-3-fluorobenzonitrile] | 6.64 nM | 1.07 nM
N#Cc1ccc([C@H]2C[C@@H]2c2cc(-c3c[nH]c(=O)[nH]c3=O)nn3c(F)cnc23)c(F)c1 [Example 310, 4-((1S,2S)-2-(6-(2,4-dioxo-1,2,3,4-tetrahydropyrimidin-5-yl)-3-fluoroimidazo[1,2-b]pyridazin-8-yl)cyclopropyl)-3-fluorobenzonitrile] | 3.4 nM | 0.63 nM
O=c1[nH]cc(-c2cc(N3CCC4(CCCC4)C3)c3nccn3n2)c(=O)[nH]1 [Example 315, 5-(8-(2-azaspiro[4.4]nonan-2-yl)imidazo[1,2-b]pyridazin-6-yl)pyrimidine-2,4(1H,3H)-dione] | 27.6 nM | 6.64 nM
O=c1[nH]cc(-c2cc([C@H]3C[C@@H]3c3ccc4c(cnn4CC(F)(F)F)c3)c3nccn3n2)c(=O)[nH]1 [Example 316, 5-(8-((1S,2S)-2-(1-(2,2,2-trifluoroethyl)-1H-indazol-5-yl)cyclopropyl)imidazo[1,2-b]pyridazin-6-yl)pyrimidine-2,4(1H,3H)-dione] | 1.21 nM | 0.65 nM
O=c1[nH]cc(-c2cc([C@H]3C[C@@H]3c3ccc4c(cnn4CC(F)(F)F)c3)c3ncc(F)n3n2)c(=O)[nH]1 [Example 317, 5-(3-fluoro-8-((1S,2S)-2-(1-(2,2,2-trifluoroethyl)-1H-indazol-5-yl)cyclopropyl)imidazo[1,2-b]pyridazin-6-yl)pyrimidine-2,4(1H,3H)-dione] | 2 nM | 1.01 nM
O=c1[nH]cc(-c2cc([C@H]3C[C@@H]3c3ccc4cnn(CC(F)(F)F)c4c3)c3nccn3n2)c(=O)[nH]1 [Example 318, 5-(8-((1S,2S)-2-(1-(2,2,2-trifluoroethyl)-1H-indazol-6-yl)cyclopropyl)imidazo[1,2-b]pyridazin-6-yl)pyrimidine-2,4(1H,3H)-dione] | 0.06 nM | 0.43 nM
O=c1[nH]cc(-c2cc([C@H]3C[C@@H]3c3ccc4cnn(CC(F)(F)F)c4c3)c3ncc(F)n3n2)c(=O)[nH]1 [Example 319, 5-(3-fluoro-8-((1S,2S)-2-(1-(2,2,2-trifluoroethyl)-1H-indazol-6-yl)cyclopropyl)imidazo[1,2-b]pyridazin-6-yl)pyrimidine-2,4(1H,3H)-dione] | 0.07 nM | 0.34 nM
CC1(C)CN(c2cc(-c3c[nH]c(=O)[nH]c3=O)nn3ccnc23)CC(F)(F)C1 [Example 320, 5-(8-(3,3-difluoro-5,5-dimethylpiperidin-1-yl)imidazo[1,2-b]pyridazin-6-yl)pyrimidine-2,4(1H,3H)-dione] | 1150 nM | > 250 nM
O=c1[nH]cc(-c2cc([C@H]3C[C@@H]3c3ccc4ncn(CC(F)(F)F)c4c3)c3nccn3n2)c(=O)[nH]1 [Example 322, 5-(8-((1S,2S)-2-(1-(2,2,2-trifluoroethyl)-1H-benzo[d]imidazol-6-yl)cyclopropyl)imidazo[1,2-b]pyridazin-6-yl)pyrimidine-2,4(1H,3H)-dione] | 0.07 nM | 0.8 nM
O=c1[nH]cc(-c2cc([C@H]3C[C@@H]3c3ccc4ncn(CC(F)(F)F)c4c3)c3ncc(F)n3n2)c(=O)[nH]1 [Example 323, 5-(3-fluoro-8-((1S,2S)-2-(1-(2,2,2-trifluoroethyl)-1H-benzo[d]imidazol-6-yl)cyclopropyl)imidazo[1,2-b]pyridazin-6-yl)pyrimidine-2,4(1H,3H)-dione] | 0.06 nM | 0.51 nM
O=c1[nH]cc(-c2cc(N3CC(F)(F)C4(CCC4)C3)c3nccn3n2)c(=O)[nH]1 [Example 325, 5-(8-(8,8-difluoro-6-azaspiro[3.4]octan-6-yl)imidazo[1,2-b]pyridazin-6-yl)pyrimidine-2,4(1H,3H)-dione] | 11.2 nM | 1.7 nM
CC1(C)CN(c2cc(-c3c[nH]c(=O)[nH]c3=O)nn3cc(Cl)nc23)CC1(F)F [Example 328, 5-(2-chloro-8-(3,3-difluoro-4,4-dimethylpyrrolidin-1-yl)imidazo[1,2-b]pyridazin-6-yl)pyrimidine-2,4(1H,3H)-dione] | 40.5 nM | 3.68 nM

Reference: patent publication US20240043427A1 (Gilead Sciences, Inc., priority 2020, published 2024)
